Measured values as given in patent US6608076B1, “Camptothecin derivatives and polymeric conjugates thereof” (priority 2002, dated 2003).

Test system: human mammary carcinoma (MX-1)
Test: Efficacy against subcutaneous human mammary carcinoma (MX-1) xenograft in nude mice
Type: in vivo
Text: General Procedures. All reactions were run under an atmosphere of dry nitrogen or argon. Commercial reagents were used without further purification. All PEG compounds were 40 kDa and were dried under vacuum or by azeotropic distillation from toluene prior to use. ^13C NMR spectra were obtained at 75.46 MHz using a Varian Mercurye® 300 NMR spectrometer and deuterated chloroform as the solvent unless otherwise specified. Chemical shifts (δ) are reported in parts per million (ppm) downfield from tetramethylsilane (TMS). All PEG conjugated compounds were dissolved in saline for injection prior to in vivo drug treatments and were given as their camptothecin equivalents (absolute amount of camptothecin given). HPLC method. The reaction mixtures and the purity of intermediates and final products were monitored by a Beckman Coulter System Gold® HPLC instrument employing a ZOBAXO® 300 SB C-8 reversed phase column (150×4.6 mm) or a Phenomenex Jupiter® 300A C18 reversed phase column (150×4.6 mm) with a multiwavelength UV detector, using a gradient of 30-90% of acetonitrile in 0.5% trifluoroacetic acid (TFA) at a flow rate of 1 mL/min.
The efficacy of open-form camptothecin analogs against a subcutaneous human mammary carcinoma (MX-1) grown in nude mice was determined as follows. Following at least one week of acclimation, tumors were established by implanting small tumor fragments from donor mice into a single subcutaneous site, on the left axillary flank region of nude mice. The tumor implantation site was observed twice weekly and measured once palpable. The tumor volume for each mouse was determined by measuring two dimensions with calipers and calculated using the formula: tumor volume=(length×width^2). When tumors reached the average volume of approximately 75 mm^3, the mice were divided into their experimental groups, which consists of untreated controls, PEG40,000-ala-20(S)-Camptothecin, compound 8, and compound 18.
The mice were sorted to evenly distribute tumor size, grouped into 4 to 5 mice/cage, and ear punched for permanent identification. Drugs were dosed intravenously via the tail vein as a single dose (Qd1). Mouse weight and tumor sizes were measured at the beginning of study and twice weekly through week 5. The overall growth of tumors was calculated as the mean tumor volume at one week following the end of the treatment. A percent treatment over control (T/C) value was also calculated when the control group's median tumor size reached approximately 800-1100 mm^3 and again at one week following treatment. The T/C value in percent is a non-quantitative indication of anti-tumor effectiveness.

## PEG40,000-ala-20(S)-Camptothecin
At equivalent doses
  Difference in antitumor activity between the three compounds: no significant (P<0.05) difference in the antitumor activity
i.v. Qd1 (24 mg/kg/dose), Day 25
  Tumor Regression at Day 25 (#/grp): 5/5
i.v. Qd1 (24 mg/kg/dose), median tumor volume treated vs control when control median reached approx. 1000 mm^3, T/C < 42% considered significant
  T/C (%) At 1000 mm^3: 1.4%
i.v. single dose, statistical comparison, P<0.05
  Tumor volume as compared to control mice: significantly (P<0.05) smaller tumor volumes
Intravenous single dose Qd1 (24 mg/kg/dose, camptothecin equivalents), established tumors ~75 mm^3, Day 21
  Tumor Volume (mean ± sem) Day 21: 15 ± 5 mm^3
